Measurements taken from patent US20100184751A1, “HETEROCYCLIC COMPOUNDS FOR THE TREATMENT OF TUBERCULOSIS” (priority 2007, published 2010).
Counter-ions that a name gives are not always drawn. Like-named read-outs stand apart in the source and are kept apart here.

Columns and labels:
[1] = General antimicrobial activity assay (whole-cell broth microdilution MIC, CLSI M7-A7); format: cell-based
[2] = system: Mycobacterium tuberculosis H37Rv; experiment: Mycobacterium tuberculosis H37Rv inhibition assay (resazurin MIC); format: cell-based; conditions: ATCC 25618 / H37Rv, read-out: MIC value
[3] = 144 h, H37Rv strain (ATCC25618), Middlebrook 7H9, 37° C., six days, resazurin fluorescence after 48 hours
[4] = H37Rv strain (ATCC25618), Middlebrook 7H9, 37° C., six days, resazurin fluorescence after 48 hours

Compound | MIC [1] [µg/mL] | MIC [2, 3] [µg/mL] | also measured
O=c1[nH]c2ccccc2nc1CNC1CCN(C[C@]2(O)Cn3c(=O)ccc4ncc(F)c2c43)CC1 [Example 38] | < 4 |  | 
COc1cnc2ccc(=O)n3c2c1[C@](O)(CN1CCC(NCc2cc4c(nn2)OCCO4)CC1)C3 [Example 66] |  |  | MIC ([1]; read-out: MIC values): > 16 µg/mL
O=c1c(Cl)cc2ncc(F)c3c2n1CC3(O)CN1CCC(NCc2cc3c(cn2)OCCO3)CC1 (racemic) [Example 24, (4R/S)-8-Chloro-4-({4-[(2,3-dihydro[1,4]dioxino[2,3-c]pyridin-7-ylmethyl)amino]-1-piperidinyl}methyl)-3-fluoro-4-hydroxy-4,5-dihydro-7H-pyrrolo[3,2,1-de]-1,5-naphthyridin-7-one Dihydrochloride] | < 4 |  | 
CC(C)n1nnc2cc(CNC3CCN(C[C@]4(O)Cn5c(=O)ccc6ncc(F)c4c65)CC3)ccc21 [Example 47] | ≤ 8 |  | 
O=c1[nH]c(CNC2CCN(C[C@]3(O)Cn4c(=O)ccc5ncc(F)c3c54)CC2)nc2ccccc12 [Example 39] | < 4 |  | 
COc1cnc2ccc(=O)n3c2c1[C@](O)(CN1CCC(NCc2cc4c(cn2)OCCO4)CC1)C3 [Example 65] | ≤ 8 |  | 
O=c1ccc2ncc(F)c3c2n1C[C@@]3(O)CN1CCC(NCc2cc3c(nn2)SCCO3)CC1 [Example 19, (4S)-4-({4-[(6,7-Dihydro[1,4]oxathiino[3,2-c]pyridazin-3-ylmethyl)amino]-1-piperidinyl}methyl)-3-fluoro-4-hydroxy-4,5-dihydro-7H-pyrrolo[3,2,1-de]-1,5-naphthyridin-7-one (E1 Enantiomer Series) Dihydrochloride] |  | ≤ 4 | MIC [2, 4]: ≤ 1.7 µg/mL
O=c1ccc2ncc(F)c3c2n1CC3(F)CN1CCC(NCc2cc3c(cn2)OCCO3)CC1 (stereo not drawn) [Example 26B, 4-({4-[(2,3-Dihydro[1,4]dioxino[2,3-c]pyridin-7-ylmethyl)amino]-1-piperidinyl}methyl)-3,4-difluoro-4,5-dihydro-7H-pyrrolo[3,2,1-de]-1,5-naphthyridin-7-one Dihydrochloride(E1 Enantiomer)] |  |  | MIC ([2]; 144 h): ≤ 4 µg/mL
O=c1ccc2ncc(F)c3c2n1C[C@@]3(O)CN1CCC(NCc2cc3ccccc3cn2)CC1 [Example 36, (4S)-3-fluoro-4-hydroxy-4-({4-[(3-isoquinolinylmethyl)amino]-1-piperidinyl}methyl)-4,5-dihydro-7H-pyrrolo[3,2,1-de]-1,5-naphthyridin-7-one] |  | ≤ 4 | 
O=c1ccc2ncc(F)c3c2n1C[C@@]3(O)CN1CCC(NCc2cc3c(cn2)OCCS3)CC1 [Example 8A, (4S)-4-({4-[(2,3-Dihydro[1,4]oxathiino[2,3-c]pyridin-7-ylmethyl)amino]-1-piperidinyl}methyl)-3-fluoro-4-hydroxy-4,5-dihydro-7H-pyrrolo[3,2,1-de]-1,5-naphthyridin-7-one (E1 Enantiomer Series) Dihydrochloride] |  | ≤ 4 | MIC [2, 4]: ≤ 1.7 µg/mL
O=c1ccc2ncc(F)c3c2n1C[C@@]3(O)CN1CCC(NCc2ccc3scnc3c2)CC1 [Example 42, (4S)-4-({4-[(1,3-benzothiazol-5-ylmethyl)amino]-1-piperidinyl}methyl)-3-fluoro-4-hydroxy-4,5-dihydro-7H-pyrrolo[3,2,1-de]-1,5-naphthyridin-7-one] |  | ≤ 4 | 
